Measurements as given in patent publication US8206732B2, “Pyrithione biocides enhanced by silver, copper, or zinc ions” (Arch Chemicals, Inc., priority 1999, dated 2012).
Blank lines part the entries; values can stand above or below the molecule they belong to.

What was measured:
[1] = system: Fusarium sp. and Cephalosporium sp.; test: Challenge test in metalworking fluid emulsion, fungal viable plate counts (Example 4, FIG. 2); type: cell-based; conditions: 250 ppm (v/v) NaPT (40% active), 10 ppm Cu (II) or Zn(II); challenged twice over 40 days
Procedure: An emulsion was prepared from a 5% dilution of a concentrate, consisting of mineral oil (83.5%), sulfonated hydrocarbon (10.7%), oleic acid (1.0%), triethanolamine (0.8%), methyl tallowate (3.0%), and propylene glycol ether (1.0%) and dispensed into Erlenmeyer flasks. Each sample was challenged twice over a period of 40 days with 10^7 calls of bacteria and 10^5 fungal spores per milliliter of emulsion. The challenge consisted of seven strains of bacteria and 2 strains of fungi originally isolated from contaminated metalworking fluid: Pseudomonas rubescens NCIMB 12202, Pseudomonas stutzeri sp., Pseudomonas fluorescens NCIMB 12202, Pseudomonas aeruginosa CIMB 6749, Pseudomonas olevorans NCIMB 6576, Alcaligenes faecalis sp., Citrobacter freundii CIMB 12203, Fusarium sp., and Cephalosporium sp. The fluids were agitated continuously on a rotary shaker, and surviving bacteria and fungi were enumerated periodically by viable plate counts on Tryptic Soy Agar.

[2] = system: Pseudomonas aeruginosa ATCC 9027; test: MIC in Tryptic Soy Broth, microtiter (Example 1); type: cell-based; conditions: TSB, 28° C., incubated 5-6 days; single agent (NaPT without Cu)
Fusarium sp. [3] = test: MIC in Tryptic Soy Broth, microtiter (Example 1); type: cell-based; conditions: TSB, 28° C., incubated 5 days; single agent (NaPT without Cu)
Procedure: Equal volumes of bacterial suspension (10^6 bacteria per milliliter of TSB) containing Pseudomonas aeruginosa ATCC 9027 or fungal spore suspension (10^5 spores per milliliter of TSB) containing Aspergillus niger ATCC 6275 or species of Fusarium and Cephalosporium isolated from contaminated metalworking fluid were added to each microtiter plate well, and the plates were incubated at 28° C. Controls were prepared for cultures inoculated into TSB with and without Cu (II).

Cephalosporium sp. = test: MIC in Tryptic Soy Broth, microtiter (Example 1); type: cell-based; conditions: TSB, 28° C., incubated 5 days; single agent (NaPT without Cu)
[4] = system: Aspergillus niger ATCC 6275; test: MIC in Tryptic Soy Broth, microtiter (Example 1); type: cell-based; conditions: TSB, 28° C., incubated 7-8 days; single agent (NaPT without Cu)
[5] = system: seven strains of bacteria isolated from contaminated metalworking fluid; test: Challenge test in metalworking fluid emulsion, bacterial viable plate counts (Example 4, FIG. 1); type: cell-based, Pseudomonas spp., Alcaligenes faecalis, Citrobacter freundii; conditions: 250 ppm (v/v) NaPT (40% active), 10 ppm Cu (II) or Zn(II); challenged twice over 40 days
[6] = system: Staphylococcus aureus 27217; test: Checkerboard MIC test, pyrithiones with silver salts; type: cell-based; conditions: TSB pH 7.3, 35° C., 1 to 2 days
Pityrosporum ovale 1452 = test: as above; type: cell-based; conditions: silver ion alone or in the inhibitory mixture; Ushijima Medium pH 5.5, 35° C., 1 to 2 days
[7] = system: Pseudomonas aeruginosa 9027; test: as above; type: cell-based; conditions: silver ion alone or in the inhibitory mixture; TSB pH 7.3, 35° C., 1 to 2 days
Candida albicans 10251 = test: as above; type: cell-based; conditions: silver ion alone or in the inhibitory mixture; TSB pH 7.3, 35° C., 1 to 2 days
Escherichia coli 10536 = test: as above; type: cell-based; conditions: TSB pH 7.3, 35° C., 1 to 2 days
[8] = system: Staphylococcus aureus ATCC 27217; test: Checkerboard MIC test, pyrithiones with zinc salts; type: cell-based; conditions: pyrithione alone or pyrithione concentration in the inhibitory mixture; TSB, 28 C, 3 days
[9] = system: Pseudomonas aeruginosa NCIMB 6749; test: Zone of inhibition test (paper disc on TSA); type: cell-based; conditions: 6.5 mm discs; 0.135% pyrithione, 0.1% ZnCl2 or both; 28° C., 24 hr
Ps. aeruginosa ATCC 9027 = test: Checkerboard MIC test, pyrithiones with zinc salts; type: cell-based, Pseudomonas aeruginosa; conditions: pyrithione alone or in the inhibitory mixture with ZnO; TSB, 28 C, 3 days
[10] = system: Aspergillus niger ATCC 6275; test: Checkerboard MIC test, pyrithiones with zinc salts; type: cell-based; conditions: pyrithione alone or in the inhibitory mixture with ZnO; TSB, 28 C, 5 days
[11] = system: Staphylococcus aureus ATCC 27217; test: Zone of inhibition test (paper disc on TSA); type: cell-based; conditions: 6.5 mm discs; 0.135% pyrithione, 0.1% ZnCl2 or both; 28° C., 24 hr
Fusarium sp. [12] = test: Checkerboard MIC test, pyrithiones with zinc salts; type: cell-based; conditions: pyrithione alone or pyrithione concentration in the inhibitory mixture; TSB, 28 C, 5 days
Procedure: Mixtures of pyrithione and zinc or silver in various proportions were tested for relative efficacy by a modification of the procedure described by Dougherty, et al.
Equal volumes of bacteria (10^6 cells/ml) or fungi (10^5 spores/ml) were added to each microtiter plate well. The plates were incubated at 28 C for 3 days (bacteria) or 5 days (fungi), and the minimum inhibitory concentration (MIC) of biocide was determined. The Fractional Inhibitory Concentration (FIC=concentration of biocide in an inhibitory mixture divided by the MIC of the pure biocide) was determined, and the FIC Index (sum of the two FIC's) was calculated. The type of interaction was categorized according to the magnitude of the Index: Synergistic (<1), Additive (1), or Antagonistic (>1).

[13] = system: Escherichia coli ATCC 10536; test: Zone of inhibition test (paper disc on TSA); type: cell-based; conditions: 6.5 mm discs; 0.135% pyrithione, 0.1% ZnCl2 or both; 28° C., 24 hr
[14] = system: seven cultures of bacteria; test: Challenge test in soluble oil metalworking fluid, bacteria (Example 6); type: cell-based; conditions: soluble oil MWF, 10 ppm Zn, 100 ppm NaPT, 50 ppm ZPT or 50 ppm CuPT as in column head
[15] = system: Pseudomonas aeruginosa NCIMB 6749; test: Checkerboard MIC test, pyrithiones with zinc salts; type: cell-based; conditions: pyrithione alone or pyrithione concentration in the inhibitory mixture; TSB, 28 C, 3 days
two cultures of fungi = test: Challenge test in soluble oil metalworking fluid, fungi (Example 6); type: cell-based; conditions: soluble oil MWF, 10 ppm Zn, 100 ppm NaPT, 50 ppm ZPT or 50 ppm CuPT as in column head
[16] = silver ion alone or in the inhibitory mixture
[17] = ZPT alone or in the inhibitory mixture with silver salt

Molecule: O.O.O.O.O.O=S(=O)([O-])[O-].[Cu+2] [Cu (II), CuSO4.5H2O]
- antifungal efficacy in a metalworking fluid (FIG. 2) [1]: little effect on reducing the growth of fungi
- MIC [2]: >0.5 ppm
- MIC (Fusarium sp. [3]): >0.5 ppm
- MIC (Cephalosporium sp.): >0.5 ppm
- MIC [4]: >0.5 ppm
- antibacterial efficacy in a metalworking fluid (FIG. 1) [5]: significantly reduced bacterial counts until the second challenge

- MIC Ag^+1 Ion [6, 16]: 9.5 ppm
- MIC Ag^+1 Ion (Pityrosporum ovale 1452): 1.2 ppm
- MIC Ag^+1 Ion [7]: 3.8 ppm
- MIC Ag^+1 Ion (Candida albicans 10251): 9.8 ppm
- MIC Ag^+1 Ion (Escherichia coli 10536; [16]): 18.8 ppm
Molecule: [Cl][Ag] [AgCl2, AgCl]

Molecule: zinc pyrithione [ZPT]
- MIC Pyrithione [8]: 4 ppm
- Zone of Inhibition [9]: 10 mm
- MIC ZPT [6, 17]: 4 ppm
- MIC Pyrithione (Ps. aeruginosa ATCC 9027): 512 ppm
- MIC Pyrithione [10]: 64 ppm
- Zone of Inhibition [11]: 27 mm
- MIC Pyrithione (Fusarium sp. [12]): 64 ppm
- Zone of Inhibition [13]: 31 mm
- BACTERIA (cfu/ml) ([14]; DAY 0): 3.2 × 10^7 cfu/ml
- BACTERIA (cfu/ml) ([14]; DAY 6): 1000 cfu/ml
- BACTERIA (cfu/ml) ([14]; DAY 13): 4400 cfu/ml
- BACTERIA (cfu/ml) ([14]; DAY 20): 7700 cfu/ml
- MIC Pyrithione [15]: 256 ppm
- FUNGI (cfu/ml) (two cultures of fungi; DAY 0): 2.4 × 10^5 cfu/ml
- FUNGI (cfu/ml) (two cultures of fungi; DAY 6): 1000 cfu/ml
- FUNGI (cfu/ml) (two cultures of fungi; DAY 13): 10 cfu/ml
- FUNGI (cfu/ml) (two cultures of fungi; DAY 20): 10 cfu/ml
- MIC ZPT (Escherichia coli 10536; [17]): 8 ppm
